Where two headings read alike, the source gives them in different places.
Columns and labels:
[1] = tested on: subcutaneous SW1222 xenografts (A33 antigen-expressing human colorectal carcinoma); conditions: 24 h accumulation interval, Zeglis 2013, cited from earlier work
[2] = In vivo stability of ^64Cu-Tz-SarAr (intact fraction in blood); set-up: species or system athymic nude mice
Experimental: Healthy athymic nude mice were injected with ^64Cu-Tz-SarAr (300-350 μCi) via intravenous tail vein injection. After 15 min, 1 h, or 4 h, the mice were sacrificed via CO2 asphyxiation, and their blood (500 μL) was collected via cardiac puncture in heparinized 1.7 mL microcentrifuge tubes. These tubes were then centrifuged at 10,000 rpm for 10 minutes to separate plasma from red-blood cells. After 10 minutes, the plasma supernatant was then transferred to a new 1.7 mL microcentrifuge tube and placed on ice. Subsequently, 500 μL of ice-cold CH3CN was added to the plasma to precipitate the proteins, and the tubes were vortexed briefly and centrifuged again for 10 min at 10,000 rpm. After this centrifugation, the supernatant was carefully removed and transferred to another 1.7 mL microcentrifuge tube, in which it was subjected to another round of centrifugation at 10,000 rpm for 10 min. After this final centrifugation, the supernatant was again transferred to a clean 1.7 mL microcentrifuge tube. This solution was then analyzed via radio-TLC methods using reverse-phase C18 TLC plates and a mobile phase of 1:1 CH3CN:water (each with 0.1% TFA). Using this method, any free ^64Cu^2+ will remain at the baseline, while ^64Cu-Tz-SarAr and other metabolites will travel up the TLC plate. The fraction of intact ^64Cu-Tz-SarAr was calculated by dividing the integral of the parent compound peak over the integral of the entire radio-TLC chromatogram. All experiments were performed in triplicate.

Structure (SMILES): O=C([O-])CN1CCN(CC(=O)[O-])CC(Cc2ccc(NC(=O)CCCC(=O)NCc3ccc(-c4nncnn4)cc3)cc2)N(CC(=O)[O-])CC1.[64Cu+2] (stereo not drawn) [^64Cu-Tz-NOTA]
- Blood activity concentration ([1]; 1 h p.i.): 3.47 ± 0.63 % ID/g
- Bone activity concentration ([1]; 1 h p.i.): 0.3 ± 0.16 % ID/g
- Heart activity concentration ([1]; 1 h p.i.): 1.09 ± 0.18 % ID/g
- Kidney activity concentration ([1]; 1 h p.i.): 1.3 ± 0.15 % ID/g
- Large Intestine activity concentration ([1]; 1 h p.i.): 13.29±3.15 % ID/g
- Liver activity concentration ([1]; 1 h p.i.): 2.19 ± 0.25 % ID/g
- Lung activity concentration ([1]; 1 h p.i.): 1.58 ± 0.46 % ID/g
- Muscle activity concentration ([1]; 1 h p.i.): 0.22 ± 0.04 % ID/g
- Small Intestine activity concentration ([1]; 1 h p.i.): 0.03 ± 0.04 % ID/g
- Spleen activity concentration ([1]; 1 h p.i.): 0.63 ± 0.07 % ID/g
- Stomach activity concentration ([1]; 1 h p.i.): 0.45 ± 0.08 % ID/g
- Tumor activity concentration ([1]; 1 h p.i.): 4.07 ± 0.25 % ID/g
- Tumor/Blood activity concentration ratio ([1]; 1 h p.i.): 1.17 ± 0.22
- Tumor/Bone activity concentration ratio ([1]; 1 h p.i.): 13.72 ± 7.63
- Tumor/Heart activity concentration ratio ([1]; 1 h p.i.): 3.75 ± 0.65
- Tumor/Kidney activity concentration ratio ([1]; 1 h p.i.): 3.14 ± 0.41
- Tumor/Large Intestine activity concentration ratio ([1]; 1 h p.i.): 0.31 ± 0.08
- Tumor/Liver activity concentration ratio ([1]; 1 h p.i.): 1.86 ± 0.24
- Tumor/Lung activity concentration ratio ([1]; 1 h p.i.): 2.57 ± 0.76
- Tumor/Muscle activity concentration ratio ([1]; 1 h p.i.): 18.42 ± 3.71
- Tumor/Small Intestine activity concentration ratio ([1]; 1 h p.i.): 119.52 ± 148.82
- Tumor/Spleen activity concentration ratio ([1]; 1 h p.i.): 6.46 ± 0.81
- Tumor/Stomach activity concentration ratio ([1]; 1 h p.i.): 8.96 ± 1.7
- Blood activity concentration ([1]; 4 h p.i.): 2.61 ± 0.83 % ID/g
- Bone activity concentration ([1]; 4 h p.i.): 0.27 ± 0.24 % ID/g
- Heart activity concentration ([1]; 4 h p.i.): 0.91 ± 0.27 % ID/g
- Kidney activity concentration ([1]; 4 h p.i.): 0.95 ± 0.31 % ID/g
- Large Intestine activity concentration ([1]; 4 h p.i.): 9.43 ± 4.22 % ID/g
- Liver activity concentration ([1]; 4 h p.i.): 1.26 ± 0.3 % ID/g
- Lung activity concentration ([1]; 4 h p.i.): 1.6 ± 0.39 % ID/g
- Muscle activity concentration ([1]; 4 h p.i.): 0.14 ± 0.03 % ID/g
- Small Intestine activity concentration ([1]; 4 h p.i.): 0.38 ± 0.08 % ID/g
- Spleen activity concentration ([1]; 4 h p.i.): 0.51 ± 0.22 % ID/g
- Stomach activity concentration ([1]; 4 h p.i.): 0.25 ± 0.12 % ID/g
- Tumor activity concentration ([1]; 4 h p.i.): 4.09±0.61 % ID/g
- Tumor/Blood activity concentration ratio ([1]; 4 h p.i.): 1.57 ± 0.55
- Tumor/Bone activity concentration ratio ([1]; 4 h p.i.): 14.95 ± 13.2
- Tumor/Heart activity concentration ratio ([1]; 4 h p.i.): 4.51 ± 1.49
- Tumor/Kidney activity concentration ratio ([1]; 4 h p.i.): 4.32 ± 1.56
- Tumor/Large Intestine activity concentration ratio ([1]; 4 h p.i.): 0.43 ± 0.2
- Tumor/Liver activity concentration ratio ([1]; 4 h p.i.): 3.23 ± 0.9
- Tumor/Lung activity concentration ratio ([1]; 4 h p.i.): 2.55 ± 0.73
- Tumor/Muscle activity concentration ratio ([1]; 4 h p.i.): 29.38 ± 8.5
- Tumor/Small Intestine activity concentration ratio ([1]; 4 h p.i.): 10.83 ± 2.8
- Tumor/Spleen activity concentration ratio ([1]; 4 h p.i.): 7.97 ± 3.57
- Tumor/Stomach activity concentration ratio ([1]; 4 h p.i.): 16.17 ± 8.21
- Blood activity concentration ([1]; 12 h p.i.): 2.31 ± 0.4 % ID/g
- Bone activity concentration ([1]; 12 h p.i.): 0.35 ± 0.11 % ID/g
- Heart activity concentration ([1]; 12 h p.i.): 0.92 ± 0.14 % ID/g
- Kidney activity concentration ([1]; 12 h p.i.): 0.91 ± 0.29 % ID/g
- Large Intestine activity concentration ([1]; 12 h p.i.): 2.92 ± 1.34 % ID/g
- Liver activity concentration ([1]; 12 h p.i.): 0.93 ± 0.23 % ID/g
- Lung activity concentration ([1]; 12 h p.i.): 1.09 ± 0.38 % ID/g
- Muscle activity concentration ([1]; 12 h p.i.): 0.16 ± 0.02 % ID/g
- Small Intestine activity concentration ([1]; 12 h p.i.): 0.77 ± 0.51 % ID/g
- Spleen activity concentration ([1]; 12 h p.i.): 0.59 ± 0.25 % ID/g
- Stomach activity concentration ([1]; 12 h p.i.): 0.52 ± 0.64 % ID/g
- Tumor activity concentration ([1]; 12 h p.i.): 4.20 ± 0.84 % ID/g
- Tumor/Bone activity concentration ratio ([1]; 12 h p.i.): 11.98 ± 4.51
- Tumor/Heart activity concentration ratio ([1]; 12 h p.i.): 4.58 ± 1.16
- Tumor/Kidney activity concentration ratio ([1]; 12 h p.i.): 4.6 ± 1.71
- Tumor/Large Intestine activity concentration ratio ([1]; 12 h p.i.): 1.44±0.72
- Tumor/Liver activity concentration ratio ([1]; 12 h p.i.): 4.53 ± 1.45
- Tumor/Lung activity concentration ratio ([1]; 12 h p.i.): 3.87 ± 1.55
- Tumor/Small Intestine activity concentration ratio ([1]; 12 h p.i.): 5.46 ± 3.81
- Tumor/Spleen activity concentration ratio ([1]; 12 h p.i.): 7.1 ± 3.34
- Tumor/Stomach activity concentration ratio ([1]; 12 h p.i.): 8.12 ± 10.12
- Blood activity concentration ([1]; 24 h p.i.): 2.07 ± 0.49 % ID/g
- Bone activity concentration ([1]; 24 h p.i.): 0.29 ± 0.07 % ID/g
- Heart activity concentration ([1]; 24 h p.i.): 0.82 ± 0.21 % ID/g
- Kidney activity concentration ([1]; 24 h p.i.): 0.7 ± 0.19 % ID/g
- Large Intestine activity concentration ([1]; 24 h p.i.): 1.67 ± 0.88 % ID/g
- Liver activity concentration ([1]; 24 h p.i.): 1.07 ± 0.15 % ID/g
- Lung activity concentration ([1]; 24 h p.i.): 1.03 ± 0.31 % ID/g
- Muscle activity concentration ([1]; 24 h p.i.): 0.15 ± 0.02 % ID/g
- Small Intestine activity concentration ([1]; 24 h p.i.): 0.35 ± 0.04 % ID/g
- Spleen activity concentration ([1]; 24 h p.i.): 0.45 ± 0.11 % ID/g
- Stomach activity concentration ([1]; 24 h p.i.): 0.16 ± 0.03 % ID/g
- Tumor activity concentration ([1]; 24 h p.i.): 3.94 ± 0.92 % ID/g
- Tumor/Blood activity concentration ratio ([1]; 24 h p.i.): 1.9 ± 0.63
- Tumor/Bone activity concentration ratio ([1]; 24 h p.i.): 13.43 ± 4.5
- Tumor/Heart activity concentration ratio ([1]; 24 h p.i.): 4.82 ± 1.69
- Tumor/Kidney activity concentration ratio ([1]; 24 h p.i.): 5.61 ± 1.98
- Tumor/Large Intestine activity concentration ratio ([1]; 24 h p.i.): 2.36 ± 1.37
- Tumor/Liver activity concentration ratio ([1]; 24 h p.i.): 3.69 ± 1.01
- Tumor/Lung activity concentration ratio ([1]; 24 h p.i.): 3.83 ± 1.45
- Tumor/Muscle activity concentration ratio ([1]; 24 h p.i.): 26.98 ± 7.41
- Tumor/Small Intestine activity concentration ratio ([1]; 24 h p.i.): 11.4 ± 2.91
- Tumor/Spleen activity concentration ratio ([1]; 24 h p.i.): 8.79 ± 2.98
- Tumor/Stomach activity concentration ratio ([1]; 24 h p.i.): 24.29 ± 6.89

Structure (SMILES): NC12CNCCNCC(NCc3ccc(CNC(=O)CCCC(=O)NCc4ccc(-c5nncnn5)cc4)cc3)(CNCCNC1)CNCCNC2.[64Cu+2] [^64Cu-Tz-SarAr]
- % Intact in blood ([2]; 15 min post-injection): 96.8±0.8%
- % Intact in blood ([2]; 1 h post-injection): 82.0±3.3%
- % Intact in blood ([2]; 4 h post-injection): 29.0±5.9%
